Measured values published in patent US10710978B2, “STK4 inhibitors for treatment of hematologic malignancies” (Dana-Farber Cancer Institute, Inc., priority 2015, dated 2020).
Values joined by “and” are separate entries in the source; they are usually repeats but may differ in a detail not shown here. Identical values can stand only once. Like-named read-outs stand apart in the source and are kept apart here.

How the values were obtained:
Assay in all cases: KiNativ assay
Format in all cases: binding
Conditions in all cases: H929 live cell
MSK1 domain1 = MSK1 domain1 (Homo sapiens (Human), UniProt O75582)
Procedure: (§1) Biochemical IC50s of the compounds of the present disclosure against various kinases were measured in a KiNativ assay. Compounds were screened in duplicate at 10 μM in H929 live cell. IC50 was measured via Mass spectroscopy (MS).

PRPK = PRPK (Homo sapiens (Human), UniProt Q96S44)
Procedure: as §1

NEK9 = NEK9 (Homo sapiens (Human), UniProt Q8TD19)
Procedure: as §1

LYN = LYN (Homo sapiens (Human), UniProt P07948)
Procedure: as §1

PIP4K2C = PIP4K2C (Homo sapiens (Human), UniProt Q8TBX8)
Procedure: as §1

CSK = CSK (Homo sapiens (Human), UniProt P41240)
Procedure: as §1

PLK1 = PLK1 (Homo sapiens (Human), UniProt P53350)
Procedure: as §1

MAP2K1, MAP2K2 = tested on: MAP2K1, MAP2K2
Procedure: as §1

MARK2, MARK3 = tested on: MARK2, MARK3
Procedure: as §1

PIK3CB = PIK3CB (Homo sapiens (Human), UniProt P42338)
Procedure: as §1

TBK1 = TBK1 (Homo sapiens (Human), UniProt Q9UHD2)
Procedure: as §1

AurA = AurA (Homo sapiens (Human), UniProt O14965)
Procedure: as §1

ATR = ATR (Homo sapiens (Human), UniProt Q13535)
Procedure: as §1

PITSLRE = tested on: PITSLRE
Procedure: as §1

MAP3K1 = MAP3K1 (Homo sapiens (Human), UniProt Q13233)
Procedure: as §1

OSR1 = OSR1 (Homo sapiens (Human), UniProt O95747)
Procedure: as §1

AMPKa1, AMPKa2 = tested on: AMPKa1, AMPKa2
Procedure: as §1

CHK1 = CHK1 (Homo sapiens (Human), UniProt O14757)
Procedure: as §1

LOK = LOK (Homo sapiens (Human), UniProt O94804)
Procedure: as §1

BARK1 = BARK1 (Homo sapiens (Human), UniProt P25098)
Procedure: as §1

GCK = GCK (Homo sapiens (Human), UniProt Q12851)
Procedure: as §1

ZAK = ZAK (Homo sapiens (Human), UniProt Q9NYL2)
Procedure: as §1

MAP3K4 = MAP3K4 (Homo sapiens (Human), UniProt Q9Y6R4)
Procedure: as §1

STLK6 = STLK6 (Homo sapiens (Human), UniProt Q9C0K7)
Procedure: as §1

FER = FER (Homo sapiens (Human), UniProt P16591)
Procedure: as §1

NuaK2 = NuaK2 (Homo sapiens (Human), UniProt Q9H093)
Procedure: as §1

p70S6Kb = p70S6Kb (Homo sapiens (Human), UniProt Q9UBS0)
Procedure: as §1

LATS1 = LATS1 (Homo sapiens (Human), UniProt O95835)
Procedure: as §1

NDR2 = NDR2 (Homo sapiens (Human), UniProt Q9Y2H1)
Procedure: as §1

NEK7 = NEK7 (Homo sapiens (Human), UniProt Q8TDX7)
Procedure: as §1

AurB = AurB (Homo sapiens (Human), UniProt Q96GD4)
Procedure: as §1

PAN3 = PAN3 (Homo sapiens (Human), UniProt Q58A45)
Procedure: as §1

CDK11, CDK8 = tested on: CDK11, CDK8
Procedure: as §1

MAP2K4 = MAP2K4 (Homo sapiens (Human), UniProt P45985)
Procedure: as §1

Sequence of AurA (O14965 whole entry): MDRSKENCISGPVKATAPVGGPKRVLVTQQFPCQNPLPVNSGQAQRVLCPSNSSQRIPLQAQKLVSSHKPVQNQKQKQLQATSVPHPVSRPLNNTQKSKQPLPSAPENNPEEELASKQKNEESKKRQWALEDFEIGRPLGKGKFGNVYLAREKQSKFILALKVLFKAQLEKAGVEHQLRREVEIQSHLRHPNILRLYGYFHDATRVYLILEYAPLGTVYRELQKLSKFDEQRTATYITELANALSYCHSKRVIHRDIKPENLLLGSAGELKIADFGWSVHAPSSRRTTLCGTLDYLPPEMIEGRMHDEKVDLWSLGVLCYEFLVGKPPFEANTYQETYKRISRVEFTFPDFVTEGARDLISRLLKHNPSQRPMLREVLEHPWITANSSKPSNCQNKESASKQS
Sequence of PLK1 (P53350 whole entry): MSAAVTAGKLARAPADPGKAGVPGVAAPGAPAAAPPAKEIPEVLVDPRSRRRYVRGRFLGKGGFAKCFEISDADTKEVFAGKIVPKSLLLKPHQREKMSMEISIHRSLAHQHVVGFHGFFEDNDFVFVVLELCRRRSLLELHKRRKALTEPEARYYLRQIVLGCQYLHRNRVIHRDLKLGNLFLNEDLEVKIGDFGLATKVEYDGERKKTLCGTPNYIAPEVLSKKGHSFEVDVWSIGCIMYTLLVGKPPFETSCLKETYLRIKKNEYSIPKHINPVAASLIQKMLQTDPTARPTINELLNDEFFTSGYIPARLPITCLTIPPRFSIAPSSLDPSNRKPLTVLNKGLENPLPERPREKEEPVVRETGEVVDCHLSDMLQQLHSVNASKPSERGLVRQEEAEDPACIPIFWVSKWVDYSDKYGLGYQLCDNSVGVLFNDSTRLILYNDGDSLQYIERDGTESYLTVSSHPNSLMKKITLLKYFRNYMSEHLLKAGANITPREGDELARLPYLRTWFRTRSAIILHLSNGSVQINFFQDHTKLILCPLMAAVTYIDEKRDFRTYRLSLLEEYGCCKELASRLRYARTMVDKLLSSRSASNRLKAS
Sequence of CHK1 (O14757 whole entry): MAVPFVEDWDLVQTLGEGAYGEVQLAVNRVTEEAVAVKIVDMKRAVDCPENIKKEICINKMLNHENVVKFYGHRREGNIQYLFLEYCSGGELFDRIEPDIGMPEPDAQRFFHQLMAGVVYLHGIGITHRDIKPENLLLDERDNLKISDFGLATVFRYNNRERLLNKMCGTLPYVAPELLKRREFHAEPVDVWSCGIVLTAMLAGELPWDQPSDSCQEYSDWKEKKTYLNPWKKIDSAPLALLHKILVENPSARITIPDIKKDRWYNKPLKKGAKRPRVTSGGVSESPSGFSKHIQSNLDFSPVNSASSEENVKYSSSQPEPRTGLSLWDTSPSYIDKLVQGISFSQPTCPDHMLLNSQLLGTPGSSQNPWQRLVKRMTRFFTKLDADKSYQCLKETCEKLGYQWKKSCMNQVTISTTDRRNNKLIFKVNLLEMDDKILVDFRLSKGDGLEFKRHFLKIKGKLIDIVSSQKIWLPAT
Sequence of PIP4K2C (Q8TBX8 whole entry): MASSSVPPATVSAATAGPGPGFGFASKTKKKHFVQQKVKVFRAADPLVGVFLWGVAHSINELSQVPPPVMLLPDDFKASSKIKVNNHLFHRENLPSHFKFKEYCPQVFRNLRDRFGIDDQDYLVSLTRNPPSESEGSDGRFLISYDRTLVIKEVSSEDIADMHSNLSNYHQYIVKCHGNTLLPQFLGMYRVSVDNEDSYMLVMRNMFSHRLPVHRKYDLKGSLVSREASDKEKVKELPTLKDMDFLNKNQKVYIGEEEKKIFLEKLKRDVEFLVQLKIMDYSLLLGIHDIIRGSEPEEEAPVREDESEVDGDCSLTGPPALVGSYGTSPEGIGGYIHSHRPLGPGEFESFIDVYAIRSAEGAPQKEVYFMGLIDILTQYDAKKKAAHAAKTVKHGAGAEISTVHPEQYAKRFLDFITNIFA
Sequence of LOK (O94804 whole entry): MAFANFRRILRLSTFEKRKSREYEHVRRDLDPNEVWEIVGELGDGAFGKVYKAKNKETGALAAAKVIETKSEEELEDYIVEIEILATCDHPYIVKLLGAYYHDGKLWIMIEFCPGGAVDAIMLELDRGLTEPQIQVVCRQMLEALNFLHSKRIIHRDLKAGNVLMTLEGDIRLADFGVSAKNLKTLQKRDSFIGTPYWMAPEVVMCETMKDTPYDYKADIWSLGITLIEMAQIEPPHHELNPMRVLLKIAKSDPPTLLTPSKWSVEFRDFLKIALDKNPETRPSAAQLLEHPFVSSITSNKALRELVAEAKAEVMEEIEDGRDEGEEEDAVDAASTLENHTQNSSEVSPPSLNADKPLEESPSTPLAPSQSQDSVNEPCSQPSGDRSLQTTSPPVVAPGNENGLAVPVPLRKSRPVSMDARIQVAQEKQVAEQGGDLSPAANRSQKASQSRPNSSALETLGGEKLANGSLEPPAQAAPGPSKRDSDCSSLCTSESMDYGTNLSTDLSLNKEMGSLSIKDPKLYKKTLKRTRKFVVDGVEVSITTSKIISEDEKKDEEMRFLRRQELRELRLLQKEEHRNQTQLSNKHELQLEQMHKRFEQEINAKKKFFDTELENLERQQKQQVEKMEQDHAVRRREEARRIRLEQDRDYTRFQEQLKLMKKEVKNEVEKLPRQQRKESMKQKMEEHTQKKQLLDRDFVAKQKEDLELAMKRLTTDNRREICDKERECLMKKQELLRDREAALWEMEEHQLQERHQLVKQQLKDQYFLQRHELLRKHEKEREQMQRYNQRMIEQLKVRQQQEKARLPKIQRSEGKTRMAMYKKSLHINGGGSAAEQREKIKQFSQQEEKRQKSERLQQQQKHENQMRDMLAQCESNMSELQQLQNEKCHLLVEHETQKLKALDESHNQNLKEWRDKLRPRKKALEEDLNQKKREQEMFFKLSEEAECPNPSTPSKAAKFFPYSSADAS
Sequence of LYN (P07948 whole entry): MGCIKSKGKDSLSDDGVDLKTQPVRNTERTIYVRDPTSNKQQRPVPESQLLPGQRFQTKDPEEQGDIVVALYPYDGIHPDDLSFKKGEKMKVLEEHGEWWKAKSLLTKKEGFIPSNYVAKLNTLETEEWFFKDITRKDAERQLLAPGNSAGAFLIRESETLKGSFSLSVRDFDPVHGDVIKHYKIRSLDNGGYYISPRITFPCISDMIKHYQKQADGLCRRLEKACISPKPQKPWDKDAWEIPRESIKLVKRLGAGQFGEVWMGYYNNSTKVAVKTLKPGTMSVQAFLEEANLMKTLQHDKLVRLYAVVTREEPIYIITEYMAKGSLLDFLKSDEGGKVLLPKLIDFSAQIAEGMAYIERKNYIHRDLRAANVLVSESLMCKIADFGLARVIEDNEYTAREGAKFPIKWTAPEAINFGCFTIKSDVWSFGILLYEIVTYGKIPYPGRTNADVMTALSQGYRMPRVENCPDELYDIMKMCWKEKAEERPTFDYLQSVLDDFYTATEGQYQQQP
Sequence of TBK1 (Q9UHD2 whole entry): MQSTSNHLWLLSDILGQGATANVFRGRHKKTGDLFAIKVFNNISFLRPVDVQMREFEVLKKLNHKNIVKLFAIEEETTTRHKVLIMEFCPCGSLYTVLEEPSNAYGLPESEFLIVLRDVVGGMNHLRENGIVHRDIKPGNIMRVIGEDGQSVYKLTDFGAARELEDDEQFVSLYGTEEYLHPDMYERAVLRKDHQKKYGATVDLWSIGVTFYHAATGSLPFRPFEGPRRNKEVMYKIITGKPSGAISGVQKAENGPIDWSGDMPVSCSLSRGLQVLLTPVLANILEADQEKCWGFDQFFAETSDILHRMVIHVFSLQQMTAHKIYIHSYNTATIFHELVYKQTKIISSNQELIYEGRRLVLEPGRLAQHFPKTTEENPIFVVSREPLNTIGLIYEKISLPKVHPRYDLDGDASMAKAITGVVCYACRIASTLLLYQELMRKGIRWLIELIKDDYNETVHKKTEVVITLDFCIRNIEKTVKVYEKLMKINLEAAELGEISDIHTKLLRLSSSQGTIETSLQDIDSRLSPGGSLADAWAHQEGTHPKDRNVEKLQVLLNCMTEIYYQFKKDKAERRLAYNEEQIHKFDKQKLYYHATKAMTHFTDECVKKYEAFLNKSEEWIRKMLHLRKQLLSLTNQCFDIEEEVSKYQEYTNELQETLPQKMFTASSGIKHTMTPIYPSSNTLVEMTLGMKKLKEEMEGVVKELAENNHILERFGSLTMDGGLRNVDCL
Sequence of MSK1 domain1 (O75582 whole entry, the tested form may be a part): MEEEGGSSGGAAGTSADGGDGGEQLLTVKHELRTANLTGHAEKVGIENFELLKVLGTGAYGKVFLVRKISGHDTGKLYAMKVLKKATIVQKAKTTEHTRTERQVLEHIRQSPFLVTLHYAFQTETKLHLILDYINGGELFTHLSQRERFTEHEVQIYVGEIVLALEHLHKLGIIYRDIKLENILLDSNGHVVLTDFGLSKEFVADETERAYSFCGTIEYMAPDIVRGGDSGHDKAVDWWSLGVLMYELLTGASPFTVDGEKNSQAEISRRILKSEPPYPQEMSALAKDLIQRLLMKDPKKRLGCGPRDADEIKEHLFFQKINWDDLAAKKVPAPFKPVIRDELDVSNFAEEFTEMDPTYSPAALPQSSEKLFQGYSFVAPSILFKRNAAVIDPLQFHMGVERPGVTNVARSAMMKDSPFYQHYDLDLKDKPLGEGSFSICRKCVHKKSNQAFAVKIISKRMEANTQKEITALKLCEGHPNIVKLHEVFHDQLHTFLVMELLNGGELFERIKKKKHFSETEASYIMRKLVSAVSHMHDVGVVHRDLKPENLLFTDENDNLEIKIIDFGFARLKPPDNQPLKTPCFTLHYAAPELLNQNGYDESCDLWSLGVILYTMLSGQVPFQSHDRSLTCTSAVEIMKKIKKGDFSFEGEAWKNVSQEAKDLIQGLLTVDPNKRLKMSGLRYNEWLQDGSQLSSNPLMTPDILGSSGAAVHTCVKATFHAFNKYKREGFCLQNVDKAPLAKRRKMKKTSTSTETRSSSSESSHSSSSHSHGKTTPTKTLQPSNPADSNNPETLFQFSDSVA

CN(C1CC1)S(=O)(=O)c1ccc(-c2cnc(N)c(-c3ccc4c(c3)CCNC4=O)c2)c(F)c1 [Compound I-28, 4-(6-amino-5-(1-oxo-1,2,3,4-tetrahydroisoquinolin-6-yl)pyridin-3-yl)-N-cyclopropyl-3-fluoro-N-methylbenzenesulfonamide]
inhibition at 10 µM (MSK1 domain1; read-out: % inhibition (range)): 0% | inhibition at 10 µM (MSK1 domain1; read-out: inhibition (10 μM)): 5.4% | inhibition at 10 µM (PRPK; read-out: % inhibition (range)): 0% | inhibition at 10 µM (PRPK; read-out: inhibition (10 μM)): 10.1% | inhibition at 10 µM (NEK9; read-out: % inhibition (range)): 0% | inhibition at 10 µM (NEK9; read-out: inhibition (10 μM)): -4.7% | inhibition at 10 µM (LYN; read-out: % inhibition (range)): 0% | inhibition at 10 µM (LYN; read-out: inhibition (10 μM)): -10.3% | inhibition at 10 µM (PIP4K2C; read-out: % inhibition (range)): 0% | inhibition at 10 µM (PIP4K2C; read-out: inhibition (10 μM)): 11.8% | inhibition at 10 µM (CSK; read-out: % inhibition (range)): 0% | inhibition at 10 µM (CSK; read-out: inhibition (10 μM)): 3.7% | inhibition at 10 µM (PLK1; read-out: % inhibition (range)): 0% | inhibition at 10 µM (PLK1; read-out: inhibition (10 μM)): 15.2% | % inhibition (range) (MAP2K1, MAP2K2; 10 μM): 0.0% | inhibition (10 μM) (MAP2K1, MAP2K2): 0.5% and −0.9% | % inhibition (range) (MARK2, MARK3; 10 μM): 0.0% | inhibition (10 μM) (MARK2, MARK3): −7.8% | inhibition at 10 µM (PIK3CB; read-out: % inhibition (range)): 0% | inhibition at 10 µM (PIK3CB; read-out: inhibition (10 μM)): 1.9% | inhibition at 10 µM (TBK1; read-out: % inhibition (range)): 0% | inhibition at 10 µM (TBK1; read-out: inhibition (10 μM)): 3.4% | inhibition (10 μM) (AurA): 33.1% | inhibition at 10 µM (AurA; read-out: % inhibition (range)): 0% | inhibition at 10 µM (AurA; read-out: inhibition (10 μM)): 27.5% | inhibition at 10 µM (ATR; read-out: % inhibition (range)): 0% | inhibition at 10 µM (ATR; read-out: inhibition (10 μM)): -37.5% | % inhibition (range) (PITSLRE; 10 μM): 0.0% | inhibition (10 μM) (PITSLRE): −6.3% | inhibition at 10 µM (MAP3K1; read-out: % inhibition (range)): > 90% | inhibition at 10 µM (MAP3K1; read-out: inhibition (10 μM)): 91.1% | inhibition at 10 µM (OSR1; read-out: % inhibition (range)): 0% | inhibition at 10 µM (OSR1; read-out: inhibition (10 μM)): 22.8% | % inhibition (range) (AMPKa1, AMPKa2; 10 μM): 0.0% | inhibition (10 μM) (AMPKa1, AMPKa2): −1.6% | inhibition at 10 µM (CHK1; read-out: % inhibition (range)): 0% | inhibition at 10 µM (CHK1; read-out: inhibition (10 μM)): 27.5% | inhibition at 10 µM (LOK; read-out: % inhibition (range)): 75 to 90% | inhibition at 10 µM (LOK; read-out: inhibition (10 μM)): 85.5% | inhibition at 10 µM (BARK1; read-out: % inhibition (range)): 0% | inhibition at 10 µM (BARK1; read-out: inhibition (10 μM)): 22.3% | inhibition at 10 µM (GCK; read-out: % inhibition (range)): 75 to 90% | inhibition at 10 µM (GCK; read-out: inhibition (10 μM)): 84.7% | inhibition at 10 µM (ZAK; read-out: % inhibition (range)): 0% | inhibition at 10 µM (ZAK; read-out: inhibition (10 μM)): 18.2% | inhibition at 10 µM (MAP3K4; read-out: % inhibition (range)): 0% | inhibition at 10 µM (MAP3K4; read-out: inhibition (10 μM)): -8.8% | inhibition at 10 µM (STLK6; read-out: % inhibition (range)): 0% | inhibition at 10 µM (STLK6; read-out: inhibition (10 μM)): 1.4% | inhibition at 10 µM (FER; read-out: % inhibition (range)): 0% | inhibition at 10 µM (FER; read-out: inhibition (10 μM)): -3.9% | inhibition at 10 µM (NuaK2; read-out: % inhibition (range)): 0% | inhibition at 10 µM (NuaK2; read-out: inhibition (10 μM)): 11.2% | inhibition at 10 µM (p70S6Kb; read-out: % inhibition (range)): 0% | inhibition at 10 µM (p70S6Kb; read-out: inhibition (10 μM)): -14.4% | inhibition at 10 µM (LATS1; read-out: % inhibition (range)): 0% | inhibition at 10 µM (LATS1; read-out: inhibition (10 μM)): 4.8% | inhibition at 10 µM (NDR2; read-out: % inhibition (range)): 0% | inhibition at 10 µM (NDR2; read-out: inhibition (10 μM)): 24.2% | inhibition at 10 µM (NEK7; read-out: % inhibition (range)): 0% | inhibition at 10 µM (NEK7; read-out: inhibition (10 μM)): 16% | inhibition at 10 µM (AurB; read-out: % inhibition (range)): 0% | inhibition at 10 µM (AurB; read-out: inhibition (10 μM)): 32.7% | inhibition at 10 µM (PAN3; read-out: % inhibition (range)): 0% | inhibition at 10 µM (PAN3; read-out: inhibition (10 μM)): -45.1% | % inhibition (range) (CDK11, CDK8; 10 μM): 0.0% | inhibition (10 μM) (CDK11, CDK8): 4.9% | inhibition at 10 µM (MAP2K4; read-out: % inhibition (range)): 0% | inhibition at 10 µM (MAP2K4; read-out: inhibition (10 μM)): 32.5%
